Like-named read-outs stand apart in the source and are kept apart here.
Test system: Huh7 cells containing HCV replicons with an integrated luciferase reporter gene
Assay: HCV Replicon Assay (luciferase reporter)
Format: cell-based
Conditions: Hepatitis C virus
Description: Huh7 cells containing HCV replicons with an integrated luciferase reporter gene are maintained at 37° C. in 5% CO2 in Dulbecco's modified Eagle's medium (DMEM; Mediatech, Herndon, Va.) containing 10% heat-inactivated fetal bovine serum (FBS; Mediatech, Herndon, Va.), 2 mM L-glutamine (Cambrex Bioscience, Walkersville, Md.), 1% non essential amino acids (Lonza, Walkersville, Md.), 50 IU/mL penicillin (Mediatech, Herndon, Va.), […] streptomycin (Mediatech, Herndon, Va.) and 0.5 mg/mL G418 (Promega, Madison, Wis.). Cells are sub-divided 1:3 or 4 every 2-3 days.
24 h prior to the assay, Huh7 cells containing sub-genomic HCV replicons are collected, counted, and plated in Nunclon 96-well tissue culture plates (ThermoFisher, Rochester, N.Y.) at 5000 cells/well in […] standard maintenance medium (above) and incubated in the conditions above. To initiate the assay, culture medium is removed, and replaced with […] maintenance media lacking G418. Test compounds are serially diluted three-fold in dimethyl sulfoxide (DMSO) in two duplicate rows for each EC50 determination. These compound solutions are diluted ten-fold in DMEM lacking serum and G418. […] of these compound solutions in media are added to duplicate tissue culture plates. The final volume is 100 μL with a DMSO concentration of 1%. Compound concentrations are adjusted to appropriately define a dose response curve. Typical dilution series range from […] to 1.69 nM final concentrations to 1 nM to 16.9 fM final. Plates are incubated at 37° C. for approximately 48 hr.
Following incubation, media is removed from one of the two duplicate plates and replicon-reporter luciferase activity is measured using a Bright-Glo luciferase assay kit (Promega, Madison, Wis.) according to manufacturer's instructions. Semi-log plots of luciferase activity versus the logarithm of compound concentration are fit to a 4-parameter logistic function using XLfit software (IDBS Inc., Guildford, UK) to determine EC50.

[1] = Huh-7, Huh7 sub-genomic HCV replicon, luciferase activity, approximately 48 hr incubation, read-out: EC50

Row | Compound | EC50 [1] [nM] | EC50 (Huh-7, 48 h, read-out: EC50 nM) [nM]
1 | COC(=O)N[C@H](C(=O)N1CCC[C@H]1c1nc(-c2ccc(-c3ccc(-c4c[nH]c([C@@H]5CCCN5C(=O)[C@@H](NC(=O)OC)c5ccc(F)cc5)n4)cc3)cc2)c[nH]1)c1ccc(F)cc1 [Compound 421] | < 10 | –
2 | COC(=O)N[C@H](C(=O)N1CCC[C@H]1c1nc2ccc(-c3ccc(-c4ccc5nc([C@@H]6CCCN6C(=O)[C@@H](NC(=O)OC)c6ccc(F)cc6)[nH]c5c4)cc3)cc2[nH]1)c1ccc(F)cc1 [Compound 422] | < 10 | –
3 | COC(=O)N[C@H](C(=O)N1CCC[C@H]1c1nc(-c2ccc(-c3ccc(-c4c[nH]c([C@@H]5CCCN5C(=O)[C@@H](NC(=O)OC)C(C(F)(F)F)C(F)(F)F)n4)cc3)cc2)c[nH]1)C(C(F)(F)F)C(F)(F)F [Compound 423] | < 10 | –
4 | COC(=O)N[C@H](C(=O)N1CCC[C@H]1c1nc(-c2ccc(-c3ccc(-c4c[nH]c([C@@H]5CCCN5C(=O)[C@@H](NC(=O)OC)c5cccc(F)c5)n4)cc3)cc2)c[nH]1)c1cccc(F)c1 [Compound 424] | < 10 | –
5 | COC(=O)N[C@H](C(=O)N1CCC[C@H]1C(=O)OCC(=O)c1ccc(N2CCN(Cc3ccccc3)CC2)cc1)C(C)C [Compound 501] | > 100 | –
6 | COC(=O)N[C@H](C(=O)N1CCC[C@H]1C(=O)Nc1ccc2cc(-c3ccccc3)ccc2c1)C(C)C [Compound 502] | – | > 100
7 | COC(=O)N[C@H](C(=O)N1CCC[C@H]1c1nc(-c2ccccc2)c[nH]1)C(C)C [Compound 504] | > 100 | –
8 | COc1ccc2cc(-c3c[nH]c([C@@H]4CCCN4C(=O)OC(C)(C)C)n3)ccc2c1 [Compound 505] | > 100 | –
9 | COC(=O)N[C@H](C(=O)N1CCC[C@H]1C(=O)NCc1ccc(-c2ccc(-c3c[nH]c([C@@H]4CCCN4C(=O)[C@@H](NC(=O)OC)C(C)C)n3)cc2)cc1)C(C)C [Compound 506] | < 10 | –
10 | COC(=O)N[C@H](C(=O)N1CCC[C@H]1c1nc(-c2ccc(-c3ccc(-c4c[nH]c([C@@H]5CCCN5C(=O)[C@@H](NC(=O)OC)C(C)C)n4)c4c3CCC4)c3c2CCC3)c[nH]1)C(C)C [Compound 601] | < 10 | –
11 | COC(=O)N[C@H](C(=O)N1CCC[C@H]1c1nc(-c2ccc(-c3ccc(-c4c[nH]c([C@@H]5CCCN5C(=O)[C@@H](NC(=O)OC)C(C)C)n4)c4ocnc34)c3ncoc23)c[nH]1)C(C)C [Compound 602] | < 10 | –
12 | COC(=O)NC(C(=O)N1CCC[C@H]1c1nc(-c2ccc(-c3ccc(-c4c[nH]c(N5CCCN5C(=O)[C@@H](NC(=O)OC)C(C)C)n4)c4scnc34)c3ncsc23)c[nH]1)C(C)C (stereo partly drawn) [Compound 603] | < 10 | –
13 | COC(=O)N[C@H](C(=O)N1CCC[C@@]1(C)c1nc(-c2ccc(-c3ccc(-c4c[nH]c([C@]5(C)CCCN5C(=O)[C@@H](NC(=O)OC)C(C)C)n4)c4c3CCC4)c3c2CCC3)c[nH]1)C(C)C [Compound 604] | < 10 | –
14 | COC(=O)N[C@H](C(=O)N1CCC[C@H]1c1nc(-c2ccc(-c3ccc(-c4c[nH]c([C@]5(C)CCCN5C(=O)[C@@H](NC(=O)OC)C(C)C)n4)c4c3CCC4)c3c2CCC3)c[nH]1)C(C)C [Compound 605] | < 10 | –
15 | COC(=O)N[C@H]1CC[C@H]2CC[C@@H](c3nc(-c4ccc(-c5ccc(-c6c[nH]c([C@@H]7CC[C@@H]8CC[C@H](NC(=O)OC)C(=O)N87)n6)cc5)cc4)c[nH]3)N2C1=O [Compound 801] | > 100 | –
16 | COC(=O)N[C@H]1CC[C@H]2CC[C@@H](C(=O)Nc3ccc(/C=C/c4ccc(NC(=O)[C@@H]5CC[C@@H]6CC[C@H](NC(=O)OC)C(=O)N65)cc4)cc3)N2C1=O [Compound 802] | > 100 | –
17 | COC(=O)N[C@H]1CC[C@H]2CC[C@@H](c3nc(-c4ccc(-c5ccc(-c6c[nH]c([C@@H]7CCCN7C(=O)[C@@H](NC(=O)OC)C(C)C)n6)cc5)cc4)c[nH]3)N2C1=O [Compound 803] | < 10 | –
18 | COC(=O)N[C@H]1CC[C@@H]2CC[C@@H](c3nc(-c4ccc(-c5ccc(-c6c[nH]c([C@@H]7CCCN7C(=O)[C@@H](NC(=O)OC)C(C)C)n6)cc5)cc4)c[nH]3)N2C1=O [Compound 804] | < 10 | –
19 | COC(=O)N[C@H]1CC[C@H]2CC[C@@H](c3nc(-c4ccc(-c5ccc(-c6c[nH]c([C@]7(C)CCCN7C(=O)[C@@H](NC(=O)OC)C(C)C)n6)cc5)cc4)c[nH]3)N2C1=O [Compound 805] | 10 to 100 | –
20 | COC(=O)N[C@H]1CCC[C@@H]2CC[C@@H](c3nc(-c4ccc(-c5ccc(-c6c[nH]c([C@@H]7CCCC7C(=O)[C@@H](NC(=O)OC)C(C)C)n6)cc5)cc4)c[nH]3)N2C1=O (stereo partly drawn) [Compound 806] | < 10 | –
21 | COC(=O)N[C@H]1CCC[C@H]2CC[C@@H](c3nc(-c4ccc(-c5ccc(-c6c[nH]c([C@@H]7CCCN7C(=O)[C@@H](NC(=O)OC)C(C)C)n6)cc5)cc4)c[nH]3)N2C1=O [Compound 807] | < 10 | –

— patent US20110312996A1, “NOVEL INHIBITORS OF HEPATITIS C VIRUS REPLICATION” (priority 2010, published 2011)
